Test results published in patent US10555987B2, “GHRH agonists for the treatment of ischemic disorders” (UNIVERSITY OF MIAMI, priority 2012, dated 2020).
“And” between values parts separate entries of the source, which are not always exact repeats. Equal values may be shown once. Non-standard residues stand in square brackets, D forms with d. Residues, ends and D or L forms follow the SMILES beside them. *: point of attachment. Desaminotyrosyl = O=C(CCc1ccc(O)cc1)*; NMeY = CN[C@@H](Cc1ccc(O)cc1)C(=O)O; Agmatine = N=C(N)NCCCCN*; Nle = CCCC[C@H](N)C(=O)O; Orn = NCCC[C@H](N)C(=O)O; Abu = CC[C@H](N)C(=O)O

Columns and labels:
[1] = biological target: T1, GHRH receptor (Homo sapiens, UniProt Q02643); experiment: Receptor binding in vitro, 125I-labeled [His1,Nle27]-hGHRH(1-32)NH2, membrane receptors of human anterior pituitary cells (Table 14); conditions: for Relative affinity (Binding potency) compared to JI-38: JI-38 = 1; for Relative affinity (Binding potency) compared to hGHRH(1-29): hGHRH(1-29)NH2 = 1; for GHRH receptor binding affinity (in words): compared to JI-38
T1 sequence (Q02643 23-423): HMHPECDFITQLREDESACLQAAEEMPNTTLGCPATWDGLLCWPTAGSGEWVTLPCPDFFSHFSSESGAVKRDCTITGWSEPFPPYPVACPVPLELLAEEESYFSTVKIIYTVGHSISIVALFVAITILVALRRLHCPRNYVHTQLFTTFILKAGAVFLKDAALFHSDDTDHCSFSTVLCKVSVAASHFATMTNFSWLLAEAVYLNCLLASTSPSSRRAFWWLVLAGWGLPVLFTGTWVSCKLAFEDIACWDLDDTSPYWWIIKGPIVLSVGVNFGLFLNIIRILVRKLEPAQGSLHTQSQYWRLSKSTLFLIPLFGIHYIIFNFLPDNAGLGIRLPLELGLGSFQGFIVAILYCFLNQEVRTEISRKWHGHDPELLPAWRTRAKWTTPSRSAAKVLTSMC
From the text: Normal human pituitary was purchased from the National Hormone and Peptide Program (UCLA Medical Center, Torrance, Calif.).

[2] = system: myocardial infarction (Fisher-344 rats); experiment: Serial echocardiography after MI, compared to JI-38 (Example 15, Table 15); type: in vivo, rat; design: key to LVEDD: Left Ventricular End Diastolic Diameter / LVESD: Left Ventricular End Systolic Diameter / VD: Ventricular Diastole / VS: Ventricular Systole / EF: Ejection Fraction / FS: Fraction Shortening: ↓: downward arrow denotes lower than JI-38; ↑: upward arrow denotes greater than JI-38; =denotes same as JI-38; ⬇⬇: double arrow denotes greater effect; ⬆⬆: double arrow denotes greater effect; conditions: for EF: Ejection Fraction / FS: Fraction Shortening / LVEDD: Left Ventricular End Diastolic Diameter / LVESD: Left Ventricular End Systolic Diameter / VD: Ventricular Diastole / VS: Ventricular Systole: in comparison to JI-38
Experimental: Echocardiographic measurements were obtained at baseline, 2 days, 1, 2 and 4 weeks. Echocardiographic assessments were performed in anesthetized rats (2% isoflurane inhalation) using a Vevo-770 echocardiogram (Visual Sonics Inc., Toronto, Ontario, Canada) equipped with a 17.5-MHz transducer. Cardiac dimensions: LV end diastolic (LVEDD), end systolic (LVESD) diameters and fractional shortening (FS) were recorded from M-mode images using averaged measurements from 3 to 5 consecutive cardiac cycles according to the American Society of Echocardiography. Ejection fraction (EF) was calculated from bi-dimensional long-axis parasternal views taken through the infarcted area. All images were analyzed using Vevo 770 3.0.0 software (Visual Sonics Inc., Toronto, Ontario, Canada).
(§1) Myocardial infarction (MI) was induced by permanent ligation of the left coronary artery in female 6-month-old Fisher-344 rats. Following experimental myocardial infarction (MI), rats were randomly assigned to receive either placebo, JI-38, or one of the following new analogs of GHRH: MR-30 l(P-21301), MR-303(P-21303), MR-356(P-20356), MR-502(25502), MR-350(P-20350), MR-36 l(P-20361), MR-367(P-20367), MR-403(P-27403), MR-404(P-27404), and MR-409(P-27409) (10 rats per each group). The GHRH peptide agonists were adminsistered starting 2 hours post-surgery, 1 week, 2 week, and 4 week intervals. All treatment was given subcutaneously twice daily. Cardiac performance was assessed by serial echocardiography and hemodynamic analysis derived from pressure-volume loops as described before.
The echocardiographic experiments are shown in FIGS. 10-15 and the results are summarized in Table 15 (results were expressed in comparison to JI-38; downward arrow denotes lower than JI-38; upward arrow denotes greater than JI-38; =denotes same as JI-38; and double arrow denotes greater effect).

[3] = system: GH release; experiment: In vivo endocrine activity, GH release after subcutaneous administration (Table 9); conditions: rat; for GH releasing potency relative to JI-38 (=1): subcutaneous (s.c.) injection
Experimental: Subcutaneous Administration. Adult male rats were used and anesthetized with pentobarbital (6 mg/100 g, b.w.), by i.p. injection. […] Blood samples were taken from the jugular vein 5, 15 and/or 30 minutes after the injection. The blood samples were centrifuged, plasma was removed and the GH level was measured byELISA. The results are summarized in terms of potency in Table 9.

[4] = system: myocardial infarction (Fisher-344 rats); experiment: Hemodynamic analysis (pressure-volume loops), body and heart weight after MI, compared to JI-38 (Example 15, Table 16); type: in vivo, rat; design: key to ESP (End-Systolic Pressure) / EDP (End-Diastolic Pressure) / ESV (End-Systolic Volume) / PRSW (Preload Recruitable Stroke Work) / Ees (End-systolic Elastance) / dP/dt max (peak rate of the pressure rise) / dP/dt max_EDV / dP/dt min / TAU (relaxation time constant calculated by Weiss method) / SV (Stroke Volume) / CO (Cardiac Output) / SW (Stroke Work) / EF / Ea/Ees / Ea (arterial Elastance): ↓: downward arrow denotes lower than JI-38; ↑: upward arrow denotes greater than JI-38; =denotes same as JI-38; ⬇⬇: double arrow denotes greater effect; ⬆⬆: double arrow denotes greater effect; conditions: rat MI model, s.c. twice daily; pressure-volume loops; expressed in comparison to JI-38
Experimental: Rats were anesthetized by intramuscular injection of a mixture of ketamine (100 mg/kg), xylazine (20 mg/kg) and acepromazine (10 mg/kg). A 2-F micromanometer tipped catheter (SPR-838, Millar Instruments, Houston, Tex.) was inserted into the right carotid artery and advanced retrograde into the left ventricle. Measurements were calibrated by injecting a hypertonic saline (15%) bolus to determine extra-ventricular conductance; relative volume units were converted to actual volume using the cuvette calibration method. All analyses were performed using PVAN 3.0 software (Millar Instruments, Houston, Tex.).
as §1
The hemodynamic studies are shown in FIGS. 16-33 and the results are summarized in Table 16 (results were expressed in comparison to JI-38; downward arrow denotes lower than JI-38; upward arrow denotes greater than JI-38; =denotes same as JI-38; and double arrow denotes greater effect).

Structure (SMILES)	Relative affinity (Binding potency) compared to JI-38 [1]	Relative affinity (Binding potency) compared to hGHRH(1-29) [1]	GHRH receptor binding affinity (in words) [1]	EF: Ejection Fraction [2]	FS: Fraction Shortening [2]	LVEDD: Left Ventricular End Diastolic Diameter [2]	LVESD: Left Ventricular End Systolic Diameter [2]	VD: Ventricular Diastole [2]	VS: Ventricular Systole [2]	GH releasing potency relative to JI-38 (=1) ([3]; 15 min after)	GH releasing potency relative to JI-38 (=1) ([3]; 30 min after)	CO (Cardiac Output) [4]	EDP (End-Diastolic Pressure) [4]	EF [4]	ESP (End-Systolic Pressure) [4]	ESV (End-Systolic Volume) [4]	Ea (arterial Elastance) [4]	Ea/Ees [4]	Ees (End-systolic Elastance) [4]	PRSW (Preload Recruitable Stroke Work) [4]	other results
CCCC[C@H](NC(=O)[C@@H](NC(=O)[C@H](CC(=O)O)NC(=O)[C@H](CCC(N)=O)NC(=O)[C@H](CC(C)C)NC(=O)[C@H](CC(C)C)NC(=O)[C@H](CCCN)NC(=O)[C@H](CCCNC(=N)N)NC(=O)[C@H](C)NC(=O)[C@H](CO)NC(=O)[C@H](CC(C)C)NC(=O)[C@H](CCC(N)=O)NC(=O)[C@H](CC)NC(=O)[C@H](CC(C)C)NC(=O)[C@@H](NC(=O)[C@H](CCCN)NC(=O)[C@H](CCCNC(=N)N)NC(=O)[C@H](Cc1ccc(O)cc1)NC(=O)[C@H](CO)NC(=O)[C@H](CCC(N)=O)NC(=O)[C@@H](NC(=O)[C@H](Cc1ccccc1)NC(=O)[C@@H](NC(=O)[C@H](C)NC(=O)[C@H](CC(=O)O)NC(=O)[C@H](C)NC(=O)CCc1ccc(O)cc1)[C@@H](C)CC)[C@@H](C)O)C(C)C)[C@@H](C)CC)C(=O)N[C@@H](CC(=O)O)C(=O)NCCCCNC(=N)N [JI-38, [Dat^1, Gln^8, Orn^12,21, Abu^15, Nle^27, Asp^28, Agm^29]hGHRH(1-29)NH2, reference compound] (Desaminotyrosyl-ADAIFTQSYR[Orn]VL[Abu]QLSAR[Orn]LLQDI[Nle]D-Agmatine)	1.00	2.79	–	–	–	–	–	–	–	–	–	–	–	–	–	–	–	–	–	–	–
CCCC[C@H](NC(=O)[C@@H](NC(=O)[C@H](CC(=O)O)NC(=O)[C@H](CCC(N)=O)NC(=O)[C@H](CC(C)C)NC(=O)[C@H](CC(C)C)NC(=O)[C@H](CCCN)NC(=O)[C@H](CCCNC(=N)N)NC(=O)[C@H](C)NC(=O)[C@H](CO)NC(=O)[C@H](CC(C)C)NC(=O)[C@H](CCC(N)=O)NC(=O)[C@H](CC)NC(=O)[C@H](CC(C)C)NC(=O)[C@@H](NC(=O)[C@H](CCCN)NC(=O)[C@H](CCCNC(=N)N)NC(=O)[C@H](Cc1ccc(O)cc1)NC(=O)[C@H](CO)NC(=O)[C@H](CCC(N)=O)NC(=O)[C@@H](NC(=O)[C@H](Cc1ccccc1)NC(=O)[C@@H](NC(=O)[C@H](C)NC(=O)[C@H](CC(=O)O)NC(=O)[C@H](C)NC(=O)[C@H](Cc1ccc(O)cc1)NC)[C@@H](C)CC)[C@@H](C)O)C(C)C)[C@@H](C)CC)C(=O)N[C@@H](CC(=O)O)C(=O)NCCCCNC(=N)N [Peptide P-20356, [N—Me-Tyr^1, Gln^8, Orn^12, Abu^15, Orn^21, Nle^27, Asp^28, Agm^29]hGHRH(1-29) NH2] (H-[NMeY]ADAIFTQSYR[Orn]VL[Abu]QLSAR[Orn]LLQDI[Nle]D-Agmatine)	–	7.50	improved receptor binding affinity	=	⬆⬆	⬇⬇	⬇⬇	=	=	1.72	1.09	=	=	=	=	=	↑	=	=	=	Relative affinity (Binding potency) compared to JI-38 ([1]; listed as MR-356): 2.7 and 2.69; cardiac dimensions (LVEDD and LVESD) ([2]; after MI): reduced cardiac dimensions; cardiac performance (EF and FS) ([2]; after MI): substantial improvement on cardiac performance; Stimulation of growth hormone levels after subcutaneous administration (in words) ([3]; s.c.): stimulated greater growth hormone levels than hGHRH or JI-38; SV (Stroke Volume) [4]: =; SW (Stroke Work) [4]: =; TAU (relaxation time constant calculated by Weiss method) [4]: =; dP/dt max (peak rate of the pressure rise) [4]: =; dP/dt max_EDV [4]: =; dP/dt min [4]: =
CCCC[C@H](NC(=O)[C@@H](NC(=O)[C@H](CC(=O)O)NC(=O)[C@H](CCC(N)=O)NC(=O)[C@H](CC(C)C)NC(=O)[C@H](CC(C)C)NC(=O)[C@H](CCCN)NC(=O)[C@H](CCCNC(=N)N)NC(=O)[C@H](C)NC(=O)[C@H](CO)NC(=O)[C@H](CC(C)C)NC(=O)[C@H](CCC(N)=O)NC(=O)[C@H](CC)NC(=O)[C@H](CC(C)C)NC(=O)[C@@H](NC(=O)[C@H](CCCN)NC(=O)[C@H](CCCNC(=N)N)NC(=O)[C@H](Cc1ccc(O)cc1)NC(=O)[C@H](CO)NC(=O)[C@H](CCC(N)=O)NC(=O)[C@@H](NC(=O)[C@H](Cc1ccccc1)NC(=O)[C@@H](NC(=O)[C@H](C)NC(=O)[C@H](CC(=O)O)NC(=O)[C@@H](C)NC(=O)[C@H](Cc1ccc(O)cc1)NC)[C@@H](C)CC)[C@@H](C)O)C(C)C)[C@@H](C)CC)C(=O)N[C@@H](CC(=O)O)C(=O)NCCCCNC(=N)N [Peptide P-20361, [N—Me-Tyr^1, D-Ala^2, Gln^8, Orn^12, Abu^15, Orn^21, Nle^27, Asp^28, Agm^29] hGHRH (1-29)NH2] (H-[NMeY][dA]DAIFTQSYR[Orn]VL[Abu]QLSAR[Orn]LLQDI[Nle]D-Agmatine)	2.30	6.42	improved receptor binding affinity	↓	=	=	=	=	↑	1.18	1.50	=	↑	=	↑	↑	↑	↓	↑	=	SV (Stroke Volume) [4]: ↓; SW (Stroke Work) [4]: ↓; TAU (relaxation time constant calculated by Weiss method) [4]: ↑; dP/dt max (peak rate of the pressure rise) [4]: =; dP/dt max_EDV [4]: ↑; dP/dt min [4]: =
